Measured values taken from PMC7939570, “Discovery of potent histone deacetylase inhibitors with modified phenanthridine caps” (Journal of Enzyme Inhibition and Medicinal Chemistry, 2021).

Key:
[1] = tested on: U937 cells; assay: MTT antiproliferative assay, U937 cells; conditions: Homo sapiens, U-937, read-out: U937 percentage inhibitory rate, 1 µM; U937 cells; MTT; mean of three experiments
[2] = tested on: Hela nucleus extract containing a mixture of HDAC isoforms; assay: HDAC enzyme inhibitory assay with Hela nucleus extract; assay type: biochemical; conditions: 1 µM, mean of three experiments
Description: The HDAC enzyme inhibitory activities of synthesised compounds were investigated by utilising Hela nucleus extract containing a mixture of HDAC isoforms. Percentage inhibitory rate was used to determine the activity of tested compounds (Tables 1 and 2). The Fa series compounds were firstly synthesised for the activity screening. […] To investigate whether aromatic linker could improve the inhibitory activities, structural modifications were performed on current molecules.

| SMILES | inhibition at 1 µM [1] | HDACs percentage inhibitory rate [2] |
| --- | --- | --- |
| O=C(NO)c1ccc(CNC(=O)c2ccc(-c3cc4c(cc3NC(=O)c3ccccc3)OCO4)cc2)cc1 [Fb-1, 4-{[4–(6-Benzoylamino-benzo[1,3]dioxol-5-yl)-benzoylamino]-methyl}-N-Hydroxy-benzamide] | 65.2 ± 0.29% | 57.50 ± 2.92% |
| O=C(NO)c1ccc(CNC(=O)c2ccc(-c3cc4c(cc3NC(=O)c3cccc(F)c3)OCO4)cc2)cc1 [Fb-6, 4-({4-[6–(3-Fluoro-benzoylamino)-benzo[1,3]dioxol-5-yl]-benzoylamino}-methyl)-N-Hydroxy-benzamide] | 92.2 ± 2.72% | 58.36 ± 5.06% |
| O=C(NO)c1ccc(CNC(=O)c2ccc(-c3cc4c(cc3NC(=O)c3ccc(C(F)(F)F)cc3)OCO4)cc2)cc1 [Fb-7, 4-({4-[6–(4-Trifluoromethyl-benzoylamino)-benzo[1,3]dioxol-5-yl]-benzoylamino}-methyl)-N-Hydroxy-benzamide] | 84.9 ± 1.68% | 47.03 ± 15.05% |
| O=C(NO)c1ccc(CNC(=O)c2ccc(-c3cc4c(cc3NC(=O)c3cccc(C(F)(F)F)c3)OCO4)cc2)cc1 [Fb-8, 4-({4-[6–(3-Trifluoromethyl-benzoylamino)-benzo[1,3]dioxol-5-yl]-benzoylamino}-methyl)-N-Hydroxy-benzamide] | 78.2 ± 3.05% | 47.09 ± 0.62% |
| Cc1ccccc1C(=O)Nc1cc2c(cc1-c1ccc(C(=O)NCc3ccc(C(=O)NO)cc3)cc1)OCO2 [Fb-9, 4-({4-[6–(2-Methyl-benzoylamino)-benzo[1,3]dioxol-5-yl]-benzoylamino}-methyl)-N-Hydroxy-benzamide] | 69.2 ± 3.08% | 35.97 ± 3.07% |
| O=C(NO)c1ccc(CNC(=O)c2ccc(-c3cc4c(cc3NC(=O)c3cccc(Br)c3)OCO4)cc2)cc1 [Fb-10, 4-({4-[6–(3-Bromo-benzoylamino)-benzo[1,3]dioxol-5-yl]-benzoylamino}-methyl)-N-Hydroxy-benzamide] | 86.2 ± 4.18% | 49.47 ± 9.25% |
| O=C(NO)c1ccc(CNC(=O)c2ccc(-c3cc4c(cc3NC(=O)c3ccc(F)cc3)OCO4)cc2)cc1 [Fb-11, 4-({4-[6–(4-Fluoro-benzoylamino)-benzo[1,3]dioxol-5-yl]-benzoylamino}-methyl)-N-Hydroxy-benzamide] | 59.2 ± 6.95% | 48.27 ± 0.62% |
| O=C(NO)c1ccc(CNC(=O)c2ccc(-c3cc4c(cc3NC(=O)c3ccccc3Cl)OCO4)cc2)cc1 [Fb-12, 4-({4-[6–(2-Chloro-benzoylamino)-benzo[1,3]dioxol-5-yl]-benzoylamino}-methyl)-N-Hydroxy-benzamide] | 76.6 ± 6.97% | 59.61 ± 6.64% |
| CC(C)(C)OC(=O)Nc1cc2c(cc1-c1ccc(C(=O)NCc3ccc(C(=O)NO)cc3)cc1)OCO2 [Fb-13, 4-{[4–(6-Tert-Butoxycarbonylamino-benzo[1,3]dioxol-5-yl)-benzoylamino]-methyl}-N-Hydroxy-benzamide] | 75.5 ± 2.4% | 48.09 ± 3.01% |
| Nc1cc2c(cc1-c1ccc(C(=O)NCc3ccc(C(=O)NO)cc3)cc1)OCO2 [Fb-14, 4-{[4–(6-Amino-benzo[1,3]dioxol-5-yl)-benzoylamino]-methyl}-N-Hydroxy-benzamide] | 75.6 ± 2.28% | 58.84 ± 2.40% |
